We go through 20 molecules from patent publication US20160090351A1, “INHIBITORS OF DEUBIQUITINATING PROTEASES” (BRANDEIS UNIVERSITY, priority 2013, published 2016).

Test [1] concerns DUBs. As to the kind of experiment: decomposition of high molecular weight ubiquitinated proteins (HMW-Ub) in lysates of HEK 293T cells expressing HA-Ub. Format: biochemical, human. Particulars: for stabilization of the HMW-Ub pool: HEK 293T HA-Ub lysates, 37° C.; for DUB inhibitory activity, SAR in words: relative to C4 or parent analog. The protocol:
FIG. 30 depicts data showing that diphenylcarbonates inhibit the decomposition of high molecular weight ubiquitinated proteins (HMW-Ub). Lysates were prepared from HEK 293T cells expressing HA-ubiquitin. Samples were incubated at 37° C. and reactions were quenched by the addition of reducing Laemmli buffer. HMW-Ub was assessed by SDS-PAGE and immunoblotting with anti-HA antibody. A. Representative immunoblots measuring the decomposition of HMW-Ub in lysates treated with either the DMSO vehicle, G5 (10 μM) or C4 (500 μM). B. Plot of the decomposition of HMW-Ub in lysates treated with DMSO and C4 (500 μM) (N=2; error bars denote range). C. Inhibition of HMW-Ub decomposition by diphenylcarbonates. Lysates were treated with diphenylcarbonates (50 μM). “-” denotes no treatment; D, 1% DMSO vehicle; IU1, an USP14-specific inhibitor; Bort, bortezomib, a proteasome inhibitor. D. Representative decomposition of HMW-Ub after 2 h incubation in the presence of varying concentrations of C4. See also FIG. 36. E. Quantitation of D. The values of EC50 reported in FIG. 29B are the average and S.E.M. of at least 3 independent experiments. See also FIG. 37 and FIG. 38.
Cells overexpressing HA-ubiquitin were prepared as above. Pellets were typically stored at −80° C. until required, at which time they were thawed on ice. Cell lysis was performed in lysis buffer using a Dounce homogenizer (10 strokes, with grinding, on ice: typical yield approx. 2-5 mg protein per transfected T75 flask for HEK 293T cells; 1-3 mg protein from a T75 flask for Cos-1). Crude lysate was centrifuged at 17000 g for 10 min at 4° C., after which time the concentration of the lysate was normalized to 1 mg/mL. The lysate was aliquoted into PCR strip tubes (typical volumes 75-50 μL) and compound in DMSO was added to this to give a final concentration of DMSO of 1%. Tubes were briefly centrifuged, overlaid with Chill-out wax (50 μL) and placed in a PCR machine at 37° C. with heated lid set to 37° C. Aliquots (9 μL) were removed at the stated times and immediately quenched in (2× final concentration) reducing (dithiothreitol) loading buffer and frozen (−19° C.) till required. Western blot analysis was carried out using standard methods. Samples were resolved by SDS-PAGE, transferred to PVDF [(0.45 μm) (Towbin buffer, tank apparatus, 90 V 1 hour, then overnight at 30 V, 4° C.)] then blocked in 15% milk in TBS-T HS (100 mM Tris HCl, pH 7.6, 500 mM NaCl, 0.5% […]) for at least 2 hours at RT. Afterward, membrane was washed in TBS-T HS then probed with anti HA-HRP (1:18000) for 1.33 hours at RT. Membrane was washed 3 times in TBS-T HS (15 mins) then once in TBS (15 mins) and exposed to ECL II and visualized using blue biofilm. […] When required, membranes were stripped in 100 mM glycine pH 4, 500 mM NaCl, 1% SDS, 5 mM BME, at 55° C. for 19 mins, then analyzed.
Lysates were prepared from HEK 293T cells expressing N-terminally HA-tagged ubiquitin (HA-Ub) to facilitate the observation of ubiquitinated proteins. In the absence of a DUB inhibitor, the HMW-Ub pool decomposed with a half-life of 34 min (FIG. 30A,B). […] Similar results were obtained in lysates prepared from Cos-1 cells expressing HA-Ub.

Test [2] concerns DUBs. Put plainly: A-ring SAR: total ubiquitin pool in HEK293T lysates overexpressing ubiquitin-HA, western blot. In kind it is biochemical, human. Particulars: 1.5 h, compounds numbered as in FIG. 3. Here is the method:
HEK293T lysates overexpressing ubiquiting-HA were treated with the stated compound for 1.5 h and the total ubiquitin pool was analyzed by western blot (HA). […] Similar data were obtained for Cos-1 lysates.
On the technique in general: A western blot detects proteins with antibodies after separation by electrophoresis.

A further test concerns HEK 293T cells. Put plainly: accumulation of K48- and K63-linked Ub species in HEK 293T cells. In kind it is cell-based, human. Particulars: 50 μM, 2 h. The protocol: FIG. 32 depicts data showing that diphenyl carbonates inhibit DUBs in HEK 293T cells. A. Viability of HEK 293T cells assessed by the propidium iodide exclusion method: diphenyl carbonate (100 μM), bortezomib (V, 20 μM) and G5 (2 μM). N≧3, mean+/−s.d. B. HEK 293T cells were treated with the stated compounds (50 μM) for 2 h and then assayed for the accumulation of K48-linked Ub species. C. As in A, but K63-linked Ub was assayed. D. HEK 293T cells were treated with C14, C15, C17, C18 (100 μM) or DMSO for 2 hours, then harvested, lysed and treated with HA-Ub-VS. After 30 min, lysates were analyzed by SDS-PAGE and probed for HA, tubulin and actin. An intervening lane was removed for clarity. E. HEK 293T cells expressing Ub-G76V-GFP were treated with diphenyl carbonates (100 μM), bortezomib (20 μM) and G5 (2 μM). […] N>3, Mean+/−s.d. See also FIG. 39. […]

For test [3], the system named is USP9x, USP19, USP7/8, USP28/15. As to the kind of experiment: HA-Ub-VS activity profiling in cell lysates, USPs. In kind it is biochemical, human. The protocol: (§1) HA-ubiquitin vinylsulfone (HA-Ub-VS) irreversibly labels DUBs by modifying the catalytic cysteine residue Inhibition of the DUB prevents HA-Ub-VS labeling and the band is. […] The interaction with UCHL1/3 is reversible.
(§2) Lysate labeling assay on untransfected cells (1.5 mg/mL) was run with the stated concentration of inhibitor (or 1% DMSO control) for between 19-60 mins. After this time HA-Ub-VS (1.5-0.7 μM) was added and incubated for 19 mins. After this time reaction mixture (9 μL) was removed and quenched in 2× (final concentration) reducing loading buffer. For recovery experiments, a lysate of 6 mg/mL was treated with saturating compound C14 (250 μM) and incubated for 40 mins. Afterward, the lysate was diluted to 0.6 mg/mL (final concentration of inhibitor 25 μM) in lysis buffer (final volume 100 μL), then HA-Ub-VS was added. Aliquots (15 μL) were removed at the stated time (5-119 mins) and immediately quenched in 2× (final concentration) reducing loading buffer. For all HA-Ub-VS experiments samples in loading buffer were heated only to 37° C. prior to loading on a gel. This assay is highly susceptible to concentration of lysate and HA-Ub-VS. Cell experiments were carried out as above with some modifications. For Cos-1 and MCF-7 cells, after trypsinization, media with compound was added to give a final concentration of compound equal to that used in the assay. Cell pellets were lysed on an ice/salt bath with a temperature of −5° C. and lysate was centrifuged for only 5 mins.
(§3) HA-Ub-VS is an irreversible inhibitor of DUBs that is widely used in activity profiling. If the DUB inhibitors react to form a thiocarbonylated enzyme as proposed (FIG. 29B), then HA-Ub-VS labeling will be blocked. Treatment of HEK 293T lysates with HA-Ub-VS produced the characteristic pattern of protein bands at 250, 150-100, 45, 38 and 36 kDa, generally ascribed to USP9x (292 kDa), USP19 (146 kDa), USP7/8 (128 and 127 kDa, respectively), USP28/15 (122 and 112 kDa, respectively), UCH-L5 (38 kDa), UCH-L3 (26 kDa) and UCH-L1 (25 kDa) as depicted in FIG. 31.
(§4) The effect of diphenylcarbonates on HA-Ub-VS labeling was assessed to investigate the selectivity of DUB inhibition. Lysates were preincubated with diphenyl carbonates (75 μM), then treated with HA-Ub-VS (FIG. 31A). […] These C17 and C22-sensitive DUBs are most likely USP9x, USP19, USP7/8 and UCHL5, based on molecular weight (FIGS. 31B and 38). The identity of USP7 was confirmed by immunoblotting (FIG. 38F). […] Similar behavior was observed on Cos-1 cell lysates (FIG. 38B).

Another test has as its system UCH-L5, UCH-L3, UCH-L1. Put plainly: HA-Ub-VS activity profiling in cell lysates, UCH-Ls. In kind it is biochemical, human. The protocol: as §1, §2, §3, §4
For the next test, the target named is T1, USP9x (Homo sapiens, UniProt Q93008).
T1 construct: endogenous in cells; host or cells: K562 cell lysate
As to the kind of experiment: HA-Ub-VS labeling in K562 cell lysates. In kind it is biochemical. To be noted: compound 40 minutes, then HA-Ub-VS (1.5 μM) 20 minutes. The protocol:
HA-Ub-VS is commonly used to label DUBs in cell lysates. […] A. and B. K562 cell lysates were treated with compound for 40 minutes prior to activity labeling with HA-Ub-VS (1.5 μM) for 20 minutes. Samples were analyzed by SDS-PAGE and immunoblotting with anti-HA antibody. C. […] Values were derived by fitting to the in Prism.

The mark [4] stands for this setting: HEK 293T lysates, 75 μM, 30 minutes preincubation.

Each structure is given as a SMILES string.

T1 sequence (Q93008 whole entry): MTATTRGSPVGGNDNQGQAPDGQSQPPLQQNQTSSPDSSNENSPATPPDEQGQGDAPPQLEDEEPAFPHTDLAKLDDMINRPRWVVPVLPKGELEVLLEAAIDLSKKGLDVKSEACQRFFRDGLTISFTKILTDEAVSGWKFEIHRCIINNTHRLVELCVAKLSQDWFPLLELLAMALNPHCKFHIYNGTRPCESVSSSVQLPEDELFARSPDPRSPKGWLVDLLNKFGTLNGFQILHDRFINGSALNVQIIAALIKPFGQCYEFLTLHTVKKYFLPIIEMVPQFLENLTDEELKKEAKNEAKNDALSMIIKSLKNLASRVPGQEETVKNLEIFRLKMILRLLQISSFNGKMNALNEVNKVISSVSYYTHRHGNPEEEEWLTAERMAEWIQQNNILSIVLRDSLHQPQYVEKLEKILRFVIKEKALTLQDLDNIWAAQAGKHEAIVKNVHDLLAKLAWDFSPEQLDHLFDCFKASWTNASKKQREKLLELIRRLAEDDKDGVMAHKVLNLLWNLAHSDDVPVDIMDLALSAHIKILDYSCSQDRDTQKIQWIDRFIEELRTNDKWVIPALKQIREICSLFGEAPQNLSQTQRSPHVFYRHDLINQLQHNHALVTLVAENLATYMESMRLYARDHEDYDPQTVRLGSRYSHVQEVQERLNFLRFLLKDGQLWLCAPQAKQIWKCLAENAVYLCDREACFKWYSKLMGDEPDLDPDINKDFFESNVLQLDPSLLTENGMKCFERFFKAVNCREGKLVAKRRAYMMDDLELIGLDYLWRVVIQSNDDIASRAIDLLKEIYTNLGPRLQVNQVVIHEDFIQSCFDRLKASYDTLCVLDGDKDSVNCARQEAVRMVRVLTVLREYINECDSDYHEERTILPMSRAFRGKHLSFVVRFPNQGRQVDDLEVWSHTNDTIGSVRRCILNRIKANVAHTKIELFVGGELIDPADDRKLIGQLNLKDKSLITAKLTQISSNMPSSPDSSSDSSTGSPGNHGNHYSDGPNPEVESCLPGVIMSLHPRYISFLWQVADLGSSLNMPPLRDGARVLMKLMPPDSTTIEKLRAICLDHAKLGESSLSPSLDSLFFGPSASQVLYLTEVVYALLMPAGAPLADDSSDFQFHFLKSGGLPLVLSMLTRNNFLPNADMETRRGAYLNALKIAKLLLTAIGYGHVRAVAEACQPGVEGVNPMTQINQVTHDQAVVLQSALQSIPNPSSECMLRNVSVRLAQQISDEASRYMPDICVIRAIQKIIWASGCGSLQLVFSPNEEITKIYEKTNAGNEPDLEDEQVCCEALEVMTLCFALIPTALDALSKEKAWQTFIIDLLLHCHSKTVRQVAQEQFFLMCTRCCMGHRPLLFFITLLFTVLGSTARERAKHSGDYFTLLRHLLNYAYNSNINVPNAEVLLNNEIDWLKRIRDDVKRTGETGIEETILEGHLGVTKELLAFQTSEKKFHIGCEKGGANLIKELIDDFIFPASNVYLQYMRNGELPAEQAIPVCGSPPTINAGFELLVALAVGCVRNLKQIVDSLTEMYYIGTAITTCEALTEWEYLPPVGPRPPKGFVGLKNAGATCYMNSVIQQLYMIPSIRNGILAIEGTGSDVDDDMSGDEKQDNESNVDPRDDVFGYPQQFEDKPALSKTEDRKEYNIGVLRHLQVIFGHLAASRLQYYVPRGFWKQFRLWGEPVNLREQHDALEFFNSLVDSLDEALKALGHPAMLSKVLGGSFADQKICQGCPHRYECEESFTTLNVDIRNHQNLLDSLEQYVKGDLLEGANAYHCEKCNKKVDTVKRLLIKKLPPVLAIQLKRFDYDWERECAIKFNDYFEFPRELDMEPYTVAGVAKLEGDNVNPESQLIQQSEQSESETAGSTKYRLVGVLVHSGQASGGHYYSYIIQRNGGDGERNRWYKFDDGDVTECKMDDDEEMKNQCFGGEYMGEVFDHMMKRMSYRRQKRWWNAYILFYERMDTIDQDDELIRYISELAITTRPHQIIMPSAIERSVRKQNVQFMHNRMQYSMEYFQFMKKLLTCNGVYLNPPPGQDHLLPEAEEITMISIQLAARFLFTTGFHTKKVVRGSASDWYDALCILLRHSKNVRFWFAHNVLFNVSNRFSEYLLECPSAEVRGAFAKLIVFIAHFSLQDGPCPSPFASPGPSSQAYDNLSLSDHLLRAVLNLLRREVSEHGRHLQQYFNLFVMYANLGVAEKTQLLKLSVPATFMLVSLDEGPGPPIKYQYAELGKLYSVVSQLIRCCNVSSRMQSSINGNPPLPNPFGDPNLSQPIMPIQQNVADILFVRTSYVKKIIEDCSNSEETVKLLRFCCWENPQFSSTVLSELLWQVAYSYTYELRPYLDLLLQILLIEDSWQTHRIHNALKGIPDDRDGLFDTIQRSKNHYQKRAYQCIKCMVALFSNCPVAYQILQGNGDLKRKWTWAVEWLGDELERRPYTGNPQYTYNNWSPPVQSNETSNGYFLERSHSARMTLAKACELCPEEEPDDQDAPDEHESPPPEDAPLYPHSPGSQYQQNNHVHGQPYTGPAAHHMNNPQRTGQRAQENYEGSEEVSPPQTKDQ

On to `NCc1ccc(OC(=O)Nc2ccccc2)cc1` [Compound C7], for which, in the test with DUBs [1], the “stabilization of the HMW-Ub pool” value was “Neither the analogous carbamates (C7 and C8, FIG. 30 and FIG. 36), nor the analogous esters (C9 and C10) stabilized HMW-Ub”. As for `CC(C)(C)OC(=O)NCc1ccc(OC(=O)Oc2ccc(Cl)cc2)cc1` [compound 16, N-Boc 4-(aminomethyl)phenyl(4-chlorophenyl)carbonate], in the test with DUBs [2], the “inhibition (total ubiquitin pool)” value is reported as “not an efficient inhibitor”. For `O=C(Oc1ccccc1)Oc1ccc(CNCc2ccc(Cl)cc2)cc1` [Compound C5], in the test with DUBs [1], the “stabilization of the HMW-Ub pool” value was “inhibited the decomposition of the HMW-Ub pool” and the “DUB inhibitory activity, SAR in words” value was “retained DUB inhibitory activity”.

With `COc1ccc(OC(=O)Oc2ccc(CN)cc2)cc1` [Compound C13, 4-(aminomethyl)phenyl(4-methoxyphenyl)carbonate], in the test on DUBs [1], the “DUB inhibitory activity, SAR in words” value is “had no effect on inhibitory activity”. On to `CC(C)(C)OC(=O)NCc1ccc(OC(=O)Oc2ccc(Cl)cc2)cc1` [Compound C23, N-Boc 4-(aminomethyl)phenyl(4-chlorophenyl)carbonate], for which, in the test with DUBs [1], the “DUB inhibitory activity, SAR in words” value is reported as “Inhibitory activity was not recovered”. As to `CC(C)CNCc1ccc(OC(=O)Oc2ccc3ccccc3c2)cc1` [Compound C21], the “DUB inhibitory activity, SAR in words” value in the test with DUBs [1] is “somewhat deleterious”. In the case of `NCc1ccc(OC(=O)Oc2ccccc2Cl)cc1` [Compound C16, 4-(aminomethyl)phenyl(2-chlorophenol)carbonate], the “DUB inhibitory activity, SAR in words” value with DUBs [1] was “improved potency relative to C4”.

As to `CC(C)(C)OC(=O)NCc1ccc(OC(=O)Oc2ccc3ccccc3c2)cc1` [Compound C19], in the test with DUBs [1], the “DUB inhibitory activity, SAR in words” value is “Inhibitory activity was not recovered”.

Take `CC(C)CNCc1ccc(OC(=O)Oc2ccc3ccccc3c2)cc1.Cl` [compound 10]: the “inhibition (total ubiquitin pool)” value in the test on DUBs [2] is reported as “have some potency”. In the case of `NCc1ccc(OC(=O)Oc2ccc(F)cc2)cc1` [Compound C11, 4-(aminomethyl)phenyl(4-fluorophenyl)carbonate], the “DUB inhibitory activity, SAR in words” value in the test with DUBs [1] is listed as “had no effect on inhibitory activity”. On to `N=C(N)NCc1ccc(OC(=O)Oc2ccc3ccccc3c2)cc1` [Compound C22], for which the “accumulation of K48-linked HMW-Ub” value in the test on HEK 293T cells was “failed to cause the accumulation of HMW-Ub”. Moreover, in test [3] (setting [4]), the “HA-Ub-VS labeling of USPs” value is given as “decreased HA-Ub-VS labeling of several USPs”. Also, the “HA-Ub-VS labeling, dose response” value in test [3] (at 12 μM) is given as “significantly inhibited the labeling of several high molecular weight proteins”. Further, the “HA-Ub-VS labeling of UCHL enzymes” value in the test on UCH-L5, UCH-L3, UCH-L1 (setting [4]) is “relatively little effect on the UCHL enzymes”. For the same molecule, in the test on UCH-L5, UCH-L3, UCH-L1 (below 50 μM), the “inhibition of UCH-L1/3/5, dose response” value is “little inhibition of UCH-L1/3/5 was observed below 50 μM”. Also, in the test with DUBs [1], the “DUB inhibitory activity, SAR in words” value is on record as “efficacious”.

With `NCc1ccc(OC(=O)Cc2ccccc2)cc1` [Compound C9], in the test with DUBs [1], the “stabilization of the HMW-Ub pool” value was “nor the analogous esters (C9 and C10) stabilized HMW-Ub”. Same read-out and setting: then `NCc1ccc(NC(=O)Oc2ccccc2)cc1` [Compound C8], with “Neither the analogous carbamates (C7 and C8, FIG. 30 and FIG. 36), nor the analogous esters (C9 and C10) stabilized HMW-Ub”. `CC(C)(C)OC(=O)NCc1ccc(OC(=O)Oc2ccccc2)cc1` [Compound C3]: in the test with DUBs [1], the “DUB inhibitory activity, SAR in words” value was “activity was lost”. Turning to `CC(C)(C)CNCc1ccc(OC(=O)Oc2ccc3ccccc3c2)cc1` [Compound C20], in the test on HEK 293T cells, the “accumulation of K48-linked HMW-Ub” value is listed as “failed to cause the accumulation of HMW-Ub”. Moreover, the “DUB inhibitory activity, SAR in words” value in the test on DUBs [1] is reported as “inhibitory activity was retained”.

For the molecule `NCc1ccc(CC(=O)Oc2ccccc2)cc1` [Compound C10], in the test with DUBs [1], the “stabilization of the HMW-Ub pool” value is “nor the analogous esters (C9 and C10) stabilized HMW-Ub”. What is called EC50 is the midpoint of the concentration-response curve. A lower EC50 goes with a more potent agent. At USP9x, `CC(C)(C)OC(=O)NCc1ccc(NC(=S)Oc2ccc(Cl)cc2)cc1` [TCM28] showed an EC50 of 45 ± 8 µM. For the molecule `CC(C)(C)CNCc1ccc(OC(=O)Oc2ccc3ccccc3c2)cc1.Cl` [compound 11], the “inhibition (total ubiquitin pool)” value with DUBs [2] is “have some potency”. On to `Cc1ccc(OC(=O)Oc2ccc(CN)cc2)cc1` [Compound C12, 4-(aminomethyl)phenyl(4-methylphenyl)carbonate], for which, in the test on DUBs [1], the “DUB inhibitory activity, SAR in words” value is recorded as “had no effect on inhibitory activity”. The molecule `CC(C)(C)OC(=O)NCc1ccc(NC(=S)Oc2ccccc2)cc1` [TCM23] displayed an EC50 on USP9x above 50 µM.
